Reference: patent US20110039721A1, “METHOD FOR PREDICTION ABOUT CARCINOGENICITY OF SUBSTANCE IN RODENT” (Chemicals Evaluation and Research Institute, priority 2007, published 2011)

Tests used:
[1] = test system: mRNA expressed from the genes (A) to (D) in rat liver; experiment: Behavior of genes (mRNA expression level, oligo-DNA microarray) in rat liver after 28-day oral administration; type: in vivo; details: rat, in vivo
Method in brief: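 Male F344 SPF rats, 5 weeks old, four per group, received carcinogens, non-carcinogens or solvent vehicle by oral gavage once daily for 28 days. Liver total RNA was then extracted. Changes of ≥1.5-fold or ≤1/1.5 versus vehicle control, in a consistent direction across carcinogens, counted as significant.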

liver = details: in vivo; cited from earlier work
rodent = details: in vivo; cited from earlier work

| Structure (SMILES) | Behavior of gene caused by administration of chemical substance, Gene No. 154 [1] | Behavior of gene caused by administration of chemical substance, Gene No. 533 [1] | Behavior of gene caused by administration of chemical substance, Gene No. 725 [1] | Behavior of gene caused by administration of chemical substance, Gene No. 813 [1] | Behavior of gene caused by administration of chemical substance, Gene No. 893 [1] | Behavior of gene caused by administration of chemical substance, Gene No. 1119 [1] | Behavior of gene caused by administration of chemical substance, Gene No. 1131 [1] | Behavior of gene caused by administration of chemical substance, Gene No. 1163 [1] | Behavior of gene caused by administration of chemical substance, Gene No. 1334 [1] | Behavior of gene caused by administration of chemical substance, Gene No. 1494 [1] | Behavior of gene caused by administration of chemical substance, Gene No. 1562 [1] | Behavior of gene caused by administration of chemical substance, Gene No. 1741 [1] | Behavior of gene caused by administration of chemical substance, Gene No. 1993 [1] | Behavior of gene caused by administration of chemical substance, Gene No. 2026 [1] | Behavior of gene caused by administration of chemical substance, Gene No. 2045 [1] | Behavior of gene caused by administration of chemical substance, Gene No. 2203 [1] | Behavior of gene caused by administration of chemical substance, Gene No. 2494 [1] | Behavior of gene caused by administration of chemical substance, Gene No. 2546 [1] | Behavior of gene caused by administration of chemical substance, Gene No. 3776 [1] | Behavior of gene caused by administration of chemical substance, Gene No. 3929 [1] | further results |
| --- | --- | --- | --- | --- | --- | --- | --- | --- | --- | --- | --- | --- | --- | --- | --- | --- | --- | --- | --- | --- | --- |
| O=C1N=C([O-])NC1(c1ccccc1)c1ccccc1.[Na+] [TS069, Phenytoin Na] | + | − | + | − | − | − | − | − | − | + | − | + | − | − | + | + | − | − | − | + | Behavior of gene caused by administration of chemical substance, Gene No. 4095 [1]: +; Behavior of gene caused by administration of chemical substance, Gene No. 4218 [1]: −; Behavior of gene caused by administration of chemical substance, Gene No. 4846 [1]: −; Behavior of gene caused by administration of chemical substance, Gene No. 4973 [1]: +; Behavior of gene caused by administration of chemical substance, Gene No. 5600 [1]: −; Behavior of gene caused by administration of chemical substance, Gene No. 5634 [1]: +; Behavior of gene caused by administration of chemical substance, Gene No. 5726 [1]: −; Behavior of gene caused by administration of chemical substance, Gene No. 5878 [1]: −; Behavior of gene caused by administration of chemical substance, Gene No. 6026 [1]: −; Behavior of gene caused by administration of chemical substance, Gene No. 6182 [1]: +; Behavior of gene caused by administration of chemical substance, Gene No. 6303 [1]: −; Behavior of gene caused by administration of chemical substance, Gene No. 6620 [1]: −; Behavior of gene caused by administration of chemical substance, Gene No. 6742 [1]: −; Liver carcinogenicity (liver): Cr−; Carcinogenicity (rodent): C+ |
| CC(=O)Nc1ccc(C(=O)CCl)cc1 [TS072, 4-(Chloroacetyl)acetanilide] | − | + | + | − | − | − | − | + | − | + | − | − | − | + | + | + | − | − | + | − | Behavior of gene caused by administration of chemical substance, Gene No. 4095 [1]: −; Behavior of gene caused by administration of chemical substance, Gene No. 4218 [1]: +; Behavior of gene caused by administration of chemical substance, Gene No. 4846 [1]: +; Behavior of gene caused by administration of chemical substance, Gene No. 4973 [1]: +; Behavior of gene caused by administration of chemical substance, Gene No. 5600 [1]: +; Behavior of gene caused by administration of chemical substance, Gene No. 5634 [1]: −; Behavior of gene caused by administration of chemical substance, Gene No. 5726 [1]: −; Behavior of gene caused by administration of chemical substance, Gene No. 5878 [1]: −; Behavior of gene caused by administration of chemical substance, Gene No. 6026 [1]: −; Behavior of gene caused by administration of chemical substance, Gene No. 6182 [1]: +; Behavior of gene caused by administration of chemical substance, Gene No. 6303 [1]: −; Behavior of gene caused by administration of chemical substance, Gene No. 6620 [1]: −; Behavior of gene caused by administration of chemical substance, Gene No. 6742 [1]: −; Liver carcinogenicity (liver): Cr−; Carcinogenicity (rodent): C− |
